Results published in patent US8318670B2, “Antigens targeted by pathogenic AI4 T cells in type 1 diabetes and uses thereof” (Albert Einstein College of Medicine of Yeshiva University, priority 2004, dated 2012).
Where no end group is shown, it is not given here.

Experiments:
[1] = system: AI4 CTL; test: 51Cr-release cytotoxicity assay, AI4 CTL against peptide-pulsed RMA-S target cells; format: cell-based, mouse; conditions: for AI4 CTL response to natural peptides with AI4-preferred motif: RMA-S targets, peptide 0.1 nM to 1 μM (FIG. 11A); for AI4 cytotoxic response towards peptide-pulsed RMA-S target cells: mimotope and alanine-substituted peptides, varying concentrations, E:T ratio of 40
Procedure: Cytotoxicity assays for screening of HPLC fractions and peptide libraries. AI4 CTL were generated by culturing splenocytes from NOD.AI4αβTg mice with IFN-γ-treated NIT-1 cells and 12.5 U/ml IL-2 as described (DiLorenzo et al., 2002). NY8.3 CTL were generated by culturing splenocytes from 8.3-NOD mice with mitomycin C-treated NOD splenocytes pulsed with 10 nM NRP-A7 peptide as described (DiLorenzo et al., 2002). CTL were used in 16 h ^51Cr-release cytotoxicity assays to test for recognition of peptide-pulsed target cells at an E:T ratio of 40:1 as described (DiLorenzo et al., 2002). TAP-deficient cell lines RMA-S, RMA-S/K^d, T2, and T2-K^d were used as targets. Synthetic peptides or peptide library mixes were used at concentrations indicated in the figures, and 1.6×10^9 NIT-1 cell equivalents of peptide were used for HPLC fraction screening assays.
Cytotoxicity Assay. AI4 CTL were generated by culturing splenocytes from NOD.AI4αβ Tg mice with IFN-γ-treated NIT-1β cells (Hamaguchi et al., 1991) and IL-2 as described (DiLorenzo et al., 2002). CTL were used in 16 h ^51Cr-release cytotoxicity assays to test for recognition of peptide-pulsed target cells at an effector to target ratio of 40:1 as described (DiLorenzo et al., 2002). TAP-deficient RMA-S cells (Kerre et al., 1986) were used as targets.

[2] = system: T cells cultured from NOD islets; test: IFN-γ ELISPOT of T cells cultured from NOD islets with peptide-pulsed APC; format: cell-based, mouse; conditions: 1 μM peptide, T cells from pooled islets of 11-week-old NOD mice, 40 h
Procedure: ELISPOT assay. ELISPOT plates (MAHA S45 10; Millipore, Billerica, Mass.) were precoated with anti-murine IFN-γ Ab (R4-6A2; BD Biosciences Pharmingen, San Diego, Calif.) and blocked with 1% BSA (Fraction V, Sigma-Aldrich, St. Louis, Mo.) in PBS. APC (Mitomycin C-treated NOD splenocytes) were added at 2×10^4 cells/well and pulsed for 1 h with 1 μM of each peptide (MimA2, NRP-V7, INS-19, INS BC, GAD65206, GAD65546). Cultured islet T cells were added at 2×10^4 cells/well and plates were incubated at 37° C. for 40 h. IFN-γ secretion was detected with a second, biotinylated anti-murine IFN-γ Ab (XMG1.2; BD Biosciences Pharmingen, San Diego, Calif.). Spots were developed using streptavidin-alkaline phosphatase (Zymed Laboratories, Inc., South San Francisco, Calif.) and 5-bromo-4-chloro-3-indolyl-phosphate/nitroblue tetrazolium chloride substrate (Sigma-Aldrich, St. Louis, Mo.).
IFN-γ ELISPOT. ELISPOT plates (MAHA S45 10; Millipore) were coated with anti-murine IFN-γ Ab (R4-6A2; BD Biosciences Pharmingen) and blocked with 1% BSA (Sigma-Aldrich) in PBS. APC (Mitomycin C-treated NOD splenocytes) were added at 2×10^4 cells/well and pulsed with 1 μM peptide. Cultured islet T cells were added at 2×10^4 cells/well and plates were incubated at 37° C. for 40 h. Secreted IFN-γ was detected with a second, biotinylated anti-murine IFN-γ Ab (XMG1.2; BD Biosciences Pharmingen). Spots were developed using streptavidin-alkaline phosphatase (Zymed Laboratories) and 5-bromo-4-chloro-3-indolyl-phosphate/nitroblue tetrazolium chloride substrate (Sigma-Aldrich). For all incubation steps, plate bottoms were covered with aluminum foil to distribute heat uniformly across the plate as described (Kalyuzhny and Stark, 2001).

[3] = molecular target: T1, H-2K^d (Mus musculus, UniProt P01902); conditions: cited from earlier work
T1 sequence (P01902 22-368): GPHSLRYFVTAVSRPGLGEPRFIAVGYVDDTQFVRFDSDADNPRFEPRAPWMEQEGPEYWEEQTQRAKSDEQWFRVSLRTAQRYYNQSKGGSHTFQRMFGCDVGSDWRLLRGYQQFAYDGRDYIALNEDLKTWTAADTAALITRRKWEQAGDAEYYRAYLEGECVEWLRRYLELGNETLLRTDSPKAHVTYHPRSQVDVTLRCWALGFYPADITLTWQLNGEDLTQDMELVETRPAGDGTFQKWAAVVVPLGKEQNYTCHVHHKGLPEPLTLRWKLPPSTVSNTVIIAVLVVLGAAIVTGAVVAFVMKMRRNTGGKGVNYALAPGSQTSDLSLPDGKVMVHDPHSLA
T1 sequence (P01887 21-119 partner): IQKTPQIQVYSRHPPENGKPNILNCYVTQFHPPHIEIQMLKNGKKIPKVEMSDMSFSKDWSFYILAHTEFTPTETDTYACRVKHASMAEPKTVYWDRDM

In the case of “DMHENYMEM [DM9, natural peptide of X-linked lymphocyte regulated complex]”, the “AI4 CTL response to natural peptides with AI4-preferred motif” value (shortened to “AI4 CTL response to natural peptides”) [1] is reported as “nonreacting”.
In the case of “EVVESYMYL [EL9, natural peptide, similar to 1,2-α-mannosidase IC]”, the “AI4 CTL response to natural peptides” value [1] is reported as “nonreacting”.
With “FQDENYLYL (listed as Mus musculus) [FNL9, natural peptide of DMK and MRCKβ]” the “IFN-γ spots in response to peptide” value [2] was “recognized by a detectable population of T cells” and the “AI4 CTL response to natural peptides” value [1] was “mirroring that obtained with the Mim peptide”.
For “FTDESYLEL [FSL9, natural peptide of polymyositis/scleroderma autoantigen 2]”, the “AI4 CTL response to natural peptides” value [1] was “nonreacting”.
With “FYTPMSRREV (listed as Mus musculus) [INS BC, murine insulin 2 B25-C34]” the “IFN-γ spots in response to peptide” value [2] was “No spots were detected”.
In the case of “HEAESYML [HL9, natural peptide of calcitonin receptor precursor]”, the “AI4 CTL response to natural peptides” value [1] is reported as “nonreacting”.
With “KYNKANVFL (peptide NRP-V7) [mimotope peptide recognized by 8.3-like T cells]” the “IFN-γ spots in response to peptide” value [2] was “detectable”.
For “LYLVCGERI (listed as Mouse sp.) [INS-I9, G9I variant of murine insulin B15-23]”, the “binding to H-2K^d relative to insulin B15-23” value [3] is listed as “more stable binding”.
For “LYLVCGERL (listed as Mus musculus) [INS-L9, G9L variant of murine insulin B15-23]”, the “IFN-γ spots in response to peptide” value [2] is listed as “detectable” and the “binding to H-2K^d relative to insulin B15-23” value [3] is listed as “more stable binding”.
In the case of “QYLENYLWM (listed as Mus musculus) [QM9, natural peptide of aquarius]”, the “AI4 CTL response to natural peptides” value [1] is reported as “more weakly”.
With “RLFENYIEL (listed as Mus musculus) [RIL9, natural peptide of exocyst complex component Sec5]” the “AI4 CTL response to natural peptides” value [1] was “more weakly”.
With “RTSENYLEL [RLL9, natural peptide of MKIAA1569 protein]” the “AI4 CTL response to natural peptides” value [1] was “nonreacting”.
With “SYQPLGDKV (listed as Mus musculus) [GAD65546, murine GAD65 546-554 peptide]” the “IFN-γ spots in response to peptide” value [2] was “unable to detect responses”.
In the case of “TNKENYTEL [TL9, natural peptide of stromal cell derived factor receptor 1]”, the “AI4 CTL response to natural peptides” value [1] is reported as “nonreacting”.
With “TYEIAPVFV (listed as Mus musculus) [GAD65206, murine glutamic acid decarboxylase 65 206-214]” the “IFN-γ spots in response to peptide” value [2] was “unable to detect responses”.
For “VMLENYTHL (listed as Mus musculus) [VML9, natural peptide, similar to KRAB zinc finger protein]”, the “AI4 CTL response to natural peptides” value [1] was “more weakly”.
For “VTLENYTHL [VTL9, natural peptide of hypothetical protein]”, the “AI4 CTL response to natural peptides” value [1] was “nonreacting”.
In the case of YAIENYLEL [MimA2, YAIENYLEL], the EC50 ([1]; RMA-S target cells, E:T ratio of 40, lower peptide concentrations (FIG. 6B), read-out: half-maximal activity, AI4 cytotoxic response) is reported as 10 pM and the “AI4 cytotoxic response towards peptide-pulsed RMA-S target cells” value [1] is reported as “strongest AI4 CTL response of all of the peptides”.
With YFIANYLEL [A4] the “AI4 cytotoxic response towards peptide-pulsed RMA-S target cells” value [1] was “significantly lower responses”.
With YFIENALEL [A6] the “AI4 cytotoxic response towards peptide-pulsed RMA-S target cells” value [1] was “significantly lower responses”.
With YFIENYAEL [A7] the “AI4 cytotoxic response towards peptide-pulsed RMA-S target cells” value [1] was “decreased”.
For YFIENYLAL [A8], the “AI4 cytotoxic response towards peptide-pulsed RMA-S target cells” value [1] was “decreased”.
With YFIENYLEL [Mim, YFIENYLEL] the “AI4 cytotoxic response towards peptide-pulsed RMA-S target cells” value [1] was “best response”.
